Consider 1 compound from PMC8131319, “The molecular basis of spectral tuning in blue- and red-shifted flavin-binding fluorescent proteins” (The Journal of Biological Chemistry, 2021).

Holding throughout (experiment): X-ray crystallography
Holding throughout (type): binding

Experiment [1] addresses T1, CagFbFP (Chloroflexus aggregans, UniProt B8GAY9, I52T/C85A).
T1 construct: gene Cagg_3753; LOV domain from residue 47 (about 47-153), C-terminal His-tag, expressed in E. coli from pET11, homodimer
Conditions: pH 5.5; noncovalent; structure virtually identical to parental CagFbFP.

The target in experiment [2] is T2, CagFbFP (Chloroflexus aggregans, UniProt B8GAY9, C85A/Q148K).
T2 construct: gene Cagg_3753; LOV domain from residue 47 (about 47-153), C-terminal His-tag, expressed in E. coli from pET11, homodimer
The note with it: 1.36 Å; pH 6.5; noncovalent; morpholine fragment near FMN; second structure 6YX6.

The target of another experiment is T3, iLOV (Arabidopsis thaliana, UniProt P93025, S394T/S409G/C426A/I452T/F470L/M475V/Q489K).
T3 construct: gene PHOT2; improved LOV2 domain (about residues 387-496 of phot2), expressed in E. coli from pET28a, His-tag (IMAC), monomer about 10 kDa
The note with it: 1.45 Å; space group P4_32_12; pH 4.6; noncovalent; acetate ion near FMN-N5.

Experiment [3] deals with T4, CagFbFP (Chloroflexus aggregans, UniProt B8GAY9, I52T/C85A/Q148K).
T4 construct: gene Cagg_3753; LOV domain from residue 47 (about 47-153), C-terminal His-tag, expressed in E. coli from pET11, homodimer
Conditions: 1.8 Å; space group P2_12_12; pH 5.0; noncovalent.

T3 sequence (P93025 387-496 S394T/S409G/C426A/I452T/F470L/M475V/Q489K limits assumed): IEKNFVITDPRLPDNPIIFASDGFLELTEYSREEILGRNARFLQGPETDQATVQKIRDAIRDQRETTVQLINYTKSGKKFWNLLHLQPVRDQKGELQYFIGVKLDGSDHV
T2 sequence (B8GAY9 entry or part of it C85A/Q148K): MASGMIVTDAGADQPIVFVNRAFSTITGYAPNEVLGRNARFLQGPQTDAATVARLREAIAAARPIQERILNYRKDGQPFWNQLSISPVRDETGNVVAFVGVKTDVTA
T1 sequence (B8GAY9 entry or part of it I52T/C85A): as the sequence (B8GAY9 entry or part of it C85A/Q148K) above, with I6T, K102Q counted along it
T4 sequence (B8GAY9 entry or part of it I52T/C85A/Q148K): as the sequence (B8GAY9 entry or part of it C85A/Q148K) above, with I6T counted along it

In the case of `Cc1cc2nc3c(=O)[nH]c(=O)nc-3n(C[C@H](O)[C@H](O)[C@H](O)COP(=O)(O)O)c2cc1C` [FMN], the X-ray crystallography result on CagFbFP [1] is “X-ray structure of CagFbFP-I52T”; on CagFbFP [2], “side chain of the introduced lysine is facing away from FMN”; on iLOV, “hydrogen bond network to FMN and N468”; on CagFbFP [3] it was “structure of CagFbFP–I52T–Q148K with hydrogen bonds between K148, T52, and the FMN”.
